Source: PubChem BioAssay (NCI)
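Results reflect a 48-hour exposure of cells in 96-well plates to compound at five concentrations. TGI: concentration producing complete growth inhibition.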

Legend:
Test in all cases: inhibition of tumour cell growth, NCI panel, 48 h
786-0 renal = test system: 786-0 renal
A498 renal = test system: A498 renal
A549 NSCLC = test system: A549 NSCLC
ACHN renal = test system: ACHN renal
BT-549 breast = test system: BT-549 breast
CAKI-1 renal = test system: CAKI-1 renal
CCRF-CEM leukemia = test system: CCRF-CEM leukemia
COLO 205 colon = test system: COLO 205 colon
DU-145 prostate = test system: DU-145 prostate
EKVX NSCLC = test system: EKVX NSCLC
HCC-2998 colon = test system: HCC-2998 colon
HCT-116 colon = test system: HCT-116 colon
HCT-15 colon = test system: HCT-15 colon
HL-60(TB) leukemia = test system: HL-60(TB) leukemia
HOP-62 NSCLC = test system: HOP-62 NSCLC
HOP-92 NSCLC = test system: HOP-92 NSCLC
HS 578T breast = test system: HS 578T breast
HT29 colon = test system: HT29 colon
IGROV1 ovarian = test system: IGROV1 ovarian
K-562 leukemia = test system: K-562 leukemia
LOX IMVI melanoma = test system: LOX IMVI melanoma
M14 melanoma = test system: M14 melanoma
MALME-3M melanoma = test system: MALME-3M melanoma
MCF7 breast = test system: MCF7 breast
MDA-MB-231 breast = test system: MDA-MB-231 breast
MDA-MB-435 = test system: MDA-MB-435
MDA-N = test system: MDA-N
MOLT-4 leukemia = test system: MOLT-4 leukemia
NCI-H226 lung = test system: NCI-H226 lung
NCI-H23 lung = test system: NCI-H23 lung
NCI-H460 lung = test system: NCI-H460 lung
NCI-H522 lung = test system: NCI-H522 lung
NCI/ADR-RES ovarian = test system: NCI/ADR-RES ovarian
OVCAR-3 ovarian = test system: OVCAR-3 ovarian
OVCAR-4 ovarian = test system: OVCAR-4 ovarian
OVCAR-5 ovarian = test system: OVCAR-5 ovarian
OVCAR-8 ovarian = test system: OVCAR-8 ovarian
PC-3 prostate = test system: PC-3 prostate
RPMI-8226 leukemia = test system: RPMI-8226 leukemia
RXF 393 renal = test system: RXF 393 renal
SF-268 CNS = test system: SF-268 CNS
SF-295 CNS = test system: SF-295 CNS
SF-539 CNS = test system: SF-539 CNS
SK-MEL-2 melanoma = test system: SK-MEL-2 melanoma
SK-MEL-28 melanoma = test system: SK-MEL-28 melanoma
SK-MEL-5 melanoma = test system: SK-MEL-5 melanoma
SN12C renal = test system: SN12C renal
SNB-19 CNS = test system: SNB-19 CNS
SNB-75 CNS = test system: SNB-75 CNS
SR leukemia = test system: SR leukemia
SW-620 colon = test system: SW-620 colon
T-47D breast = test system: T-47D breast
TK-10 renal = test system: TK-10 renal
U251 CNS = test system: U251 CNS
UACC-257 melanoma = test system: UACC-257 melanoma
UACC-62 melanoma = test system: UACC-62 melanoma
KM12 colon = test system: KM12 colon
SK-OV-3 ovarian = test system: SK-OV-3 ovarian
UO-31 renal = test system: UO-31 renal

O=c1oc2c([N+](=O)[O-])cc([N+](=O)[O-])cc2c2ccccc12
TGI (786-0 renal): > 100 µM
TGI (A498 renal): > 100 µM
TGI (A549 NSCLC): > 100 µM
TGI (ACHN renal): > 100 µM
TGI (BT-549 breast): > 100 µM
TGI (CAKI-1 renal): > 100 µM
TGI (CCRF-CEM leukemia): > 100 µM
TGI (COLO 205 colon): > 100 µM
TGI (DU-145 prostate): > 100 µM
TGI (EKVX NSCLC): > 100 µM
TGI (HCC-2998 colon): > 100 µM
TGI (HCT-116 colon): > 100 µM
TGI (HCT-15 colon): > 100 µM
TGI (HL-60(TB) leukemia): > 100 µM
TGI (HOP-62 NSCLC): > 100 µM
TGI (HOP-92 NSCLC): > 100 µM
TGI (HS 578T breast): > 100 µM
TGI (HT29 colon): > 100 µM
TGI (IGROV1 ovarian): > 100 µM
TGI (K-562 leukemia): > 100 µM
TGI (LOX IMVI melanoma): > 100 µM
TGI (M14 melanoma): > 100 µM
TGI (MALME-3M melanoma): > 100 µM
TGI (MCF7 breast): > 100 µM
TGI (MDA-MB-231 breast): > 100 µM
TGI (MDA-MB-435): > 100 µM
TGI (MDA-N): > 100 µM
TGI (MOLT-4 leukemia): > 100 µM
TGI (NCI-H226 lung): > 100 µM
TGI (NCI-H23 lung): > 100 µM
TGI (NCI-H460 lung): > 100 µM
TGI (NCI-H522 lung): > 100 µM
TGI (NCI/ADR-RES ovarian): > 100 µM
TGI (OVCAR-3 ovarian): > 100 µM
TGI (OVCAR-4 ovarian): > 100 µM
TGI (OVCAR-5 ovarian): > 100 µM
TGI (OVCAR-8 ovarian): > 100 µM
TGI (PC-3 prostate): > 100 µM
TGI (RPMI-8226 leukemia): > 100 µM
TGI (RXF 393 renal): > 100 µM
TGI (SF-268 CNS): > 100 µM
TGI (SF-295 CNS): > 100 µM
TGI (SF-539 CNS): > 100 µM
TGI (SK-MEL-2 melanoma): > 100 µM
TGI (SK-MEL-28 melanoma): > 100 µM
TGI (SK-MEL-5 melanoma): > 100 µM
TGI (SN12C renal): > 100 µM
TGI (SNB-19 CNS): > 100 µM
TGI (SNB-75 CNS): > 100 µM
TGI (SR leukemia): > 100 µM
TGI (SW-620 colon): > 100 µM
TGI (T-47D breast): > 100 µM
TGI (TK-10 renal): > 100 µM
TGI (U251 CNS): > 100 µM
TGI (UACC-257 melanoma): > 100 µM
TGI (UACC-62 melanoma): > 100 µM

O=C1NC(N/N=C\C(O)C(O)C(O)C(O)CO)=N/C1=C\c1ccc(Cl)cc1 (configuration not stated)
TGI (786-0 renal): 18.1 µM
TGI (A498 renal): 39.9 µM
TGI (A549 NSCLC): > 73.3 µM
TGI (ACHN renal): > 59.1 µM
TGI (BT-549 breast): 31.4 µM
TGI (CAKI-1 renal): > 100 µM
TGI (CCRF-CEM leukemia): > 73.1 µM
TGI (COLO 205 colon): 23.7 µM
TGI (DU-145 prostate): 91.5 µM
TGI (EKVX NSCLC): 38.9 µM
TGI (HCC-2998 colon): 36.3 µM
TGI (HCT-116 colon): > 40.4 µM
TGI (HCT-15 colon): > 100 µM
TGI (HL-60(TB) leukemia): > 72.1 µM
TGI (HOP-62 NSCLC): 7.5 µM
TGI (HOP-92 NSCLC): 7.44 µM
TGI (HS 578T breast): 6.68 µM
TGI (HT29 colon): 36.3 µM
TGI (IGROV1 ovarian): 31.9 µM
TGI (K-562 leukemia): > 100 µM
TGI (KM12 colon): > 80.7 µM
TGI (LOX IMVI melanoma): 12.8 µM
TGI (M14 melanoma): 18.1 µM
TGI (MALME-3M melanoma): 5.95 µM
TGI (MCF7 breast): > 100 µM
TGI (MDA-MB-231 breast): 15.2 µM
TGI (MDA-MB-435): 34.7 µM
TGI (MDA-N): 9.99 µM
TGI (MOLT-4 leukemia): 24.6 µM
TGI (NCI-H226 lung): 10.6 µM
TGI (NCI-H23 lung): 21.2 µM
TGI (NCI-H460 lung): 32.3 µM
TGI (NCI-H522 lung): 7.46 µM
TGI (NCI/ADR-RES ovarian): > 100 µM
TGI (OVCAR-3 ovarian): 6.88 µM
TGI (OVCAR-4 ovarian): 26 µM
TGI (OVCAR-5 ovarian): > 66.6 µM
TGI (OVCAR-8 ovarian): 5.63 µM
TGI (PC-3 prostate): 18.5 µM
TGI (RPMI-8226 leukemia): > 100 µM
TGI (RXF 393 renal): 25.6 µM
TGI (SF-268 CNS): 10.5 µM
TGI (SF-295 CNS): 31.5 µM
TGI (SF-539 CNS): 1.01 µM
TGI (SK-MEL-2 melanoma): 23.1 µM
TGI (SK-MEL-28 melanoma): > 100 µM
TGI (SK-MEL-5 melanoma): 31.4 µM
TGI (SK-OV-3 ovarian): 40.6 µM
TGI (SN12C renal): 15.3 µM
TGI (SNB-19 CNS): 10.9 µM
TGI (SNB-75 CNS): 6.04 µM
TGI (SR leukemia): 19.3 µM
TGI (SW-620 colon): > 100 µM
TGI (T-47D breast): 14.1 µM
TGI (TK-10 renal): 27.4 µM
TGI (UACC-257 melanoma): 37.4 µM
TGI (UACC-62 melanoma): 3.14 µM
TGI (UO-31 renal): > 79.9 µM

CCCCc1ccc(Nc2nc3c(ncn3COCCBr)c(=O)[nH]2)cc1
TGI (786-0 renal): > 100 µM
TGI (A498 renal): > 100 µM
TGI (A549 NSCLC): > 100 µM
TGI (ACHN renal): > 100 µM
TGI (BT-549 breast): > 100 µM
TGI (CAKI-1 renal): > 100 µM
TGI (CCRF-CEM leukemia): > 100 µM
TGI (COLO 205 colon): > 100 µM
TGI (DU-145 prostate): > 100 µM
TGI (EKVX NSCLC): > 100 µM
TGI (HCC-2998 colon): > 100 µM
TGI (HCT-116 colon): > 100 µM
TGI (HCT-15 colon): > 100 µM
TGI (HL-60(TB) leukemia): > 100 µM
TGI (HOP-62 NSCLC): > 100 µM
TGI (HOP-92 NSCLC): > 100 µM
TGI (HS 578T breast): > 100 µM
TGI (HT29 colon): > 100 µM
TGI (IGROV1 ovarian): > 100 µM
TGI (K-562 leukemia): > 100 µM
TGI (KM12 colon): > 100 µM
TGI (LOX IMVI melanoma): > 100 µM
TGI (M14 melanoma): > 100 µM
TGI (MALME-3M melanoma): > 100 µM
TGI (MCF7 breast): > 100 µM
TGI (MDA-MB-231 breast): > 100 µM
TGI (MDA-MB-435): > 100 µM
TGI (MDA-N): > 100 µM
TGI (MOLT-4 leukemia): > 100 µM
TGI (NCI-H226 lung): > 100 µM
TGI (NCI-H23 lung): > 100 µM
TGI (NCI-H460 lung): > 100 µM
TGI (NCI-H522 lung): > 100 µM
TGI (NCI/ADR-RES ovarian): > 100 µM
TGI (OVCAR-3 ovarian): > 100 µM
TGI (OVCAR-4 ovarian): > 100 µM
TGI (OVCAR-5 ovarian): > 100 µM
TGI (OVCAR-8 ovarian): > 100 µM
TGI (PC-3 prostate): > 100 µM
TGI (RPMI-8226 leukemia): > 100 µM
TGI (RXF 393 renal): > 100 µM
TGI (SF-268 CNS): > 100 µM
TGI (SF-295 CNS): > 100 µM
TGI (SF-539 CNS): > 100 µM
TGI (SK-MEL-2 melanoma): > 100 µM
TGI (SK-MEL-5 melanoma): > 100 µM
TGI (SK-OV-3 ovarian): > 100 µM
TGI (SN12C renal): > 100 µM
TGI (SNB-19 CNS): > 100 µM
TGI (SNB-75 CNS): > 100 µM
TGI (SR leukemia): > 100 µM
TGI (SW-620 colon): > 100 µM
TGI (T-47D breast): > 100 µM
TGI (TK-10 renal): > 100 µM
TGI (U251 CNS): > 100 µM
TGI (UACC-257 melanoma): > 100 µM
TGI (UACC-62 melanoma): > 100 µM
TGI (UO-31 renal): > 100 µM
